Values quoted from earlier work in patent US20130203858A1, “Fast-Dissolving Solid Pharmaceutical Form for Treating Bacterial Infections” (Nanocore Biotecnologia S.A., priority 2010, published 2013).

Tests used:
[1] = WO2009/061780 composition in the absence of PVP

portion of the drug solubilized in water [1]: about 40%
solubility in water: about 1.2 mg/mL
portion of the drug that solubilises in water (without addition of surfactants): about 20%
Structure (SMILES): CS(=O)(=O)c1ccc([C@@H](O)[C@@H](CF)NC(=O)C(Cl)Cl)cc1 [florfenicol, Florfenicol]
